Test results as given in US7728005B2, “Ether derivative” (Ajinomoto Co., Inc., priority 2003, dated 2010).

Experiments:
male ICR mouse = experiment: Acetic acid-induced writhing method; format: in vivo
Description: The effect of the test compound in the writhing test method induced by acetic acid was examined using male ICR mouse (4-week-old). For intraperitoneal administration of the test compound, the test compound was dissolved in saline containing 5% DMSO and 5% Tween 80 to a suitable concentration, and administered at a dose of 5 ml/kg at 30 min before acetic acid administration. For oral administration of the test compound, the test compound was suspended in 0.5% CMC and administered at a dose of 5 ml/kg at 1 hr before acetic acid administration. Acetic acid was diluted with saline to 0.9%, intraperitoneally administered at a dose of 5 ml/kg and, starting 5 min thereafter, the number of writhing responses was counted for 15 min. Saline containing 5% DMSO and 5% Tween 80 was also intraperitoneally administered to the control group (vehicle administration group). As the standard product, indomethacin was used, which was suspended in 0.5% tragacanth gum and orally administered at 90 min before acetic acid administration. 0.5% Tragacanth gum was administered to the control group.
The number of writhing responses by each test compound is shown in FIG. 1 and the number of writhing responses by indomethacin is shown in FIG. 2.

Male ICR mice = experiment: Mustard oil-induced thermal hyperalgesia model method (hot plate test); format: in vivo; conditions: 1.0 mg/kg oral, 1 hr before hot plate test; ICR mouse
Description: Male ICR mice (5 to 7-week-old) were used. Mustard oil 10% (diluted with distilled water) was subcutaneously injected into both hind paws, and a hot plate test was performed 30 min […] later. The animal was placed on a hot plate and the latency for nociceptive behavior was measured and used as an index. The compound was suspended in 0.5% CMC and orally administered at a dose of 5 ml/kg at 1 hr before the hot plate test. The inhibitory rate was calculated relative to the index measured before administration as 100%.

## O=C(NCCOc1ccc(F)cc1)Nc1ccccc1Br [Example 1, N-(2-bromophenyl)-N′-[2-(4-fluorophenoxy)ethyl]urea]
Male ICR mouse; 10 mg/kg intraperitoneal, 30 min before acetic acid
  inhibitory rate (number of writhing responses): 76%

## C[C@@H](COc1cccc(Cl)c1)NC(=O)Nc1cccc2cnccc12 [Example 38, N-[(1S)-2-(3-chlorophenoxy)-1-methylethyl]-N′-(isoquinolin-5-yl)urea]
Male ICR mice
  inhibition rate (latency for nociceptive behavior): 57%

## COc1ccc2c(c1)c(CC(=O)O)c(C)n2C(=O)c1ccc(Cl)cc1 [indomethacin, reference compound]
Male ICR mouse; 30 mg/kg oral, 90 min before acetic acid
  inhibitory rate (number of writhing responses): 56%
